Here are results for seven compounds from ChEMBL document CHEMBL4256946, “Thiourea compounds and their use as inhibitors of sirt2 or sirt5” (2016).

Each structure is given as a SMILES string. Activity calls are given as the source filed them. No cut-off for these calls is given here.

Experiment [1] concerns the target NAD-dependent protein deacylase sirtuin-5, mitochondrial (Homo sapiens) (UniProt Q9NXA8). Description: Substrate activity at SIRT5 (unknown origin) assessed as compound-NAD covalent intermediate formation by measuring 3-((3aR,5R,6R,6aR)-5-((((((2R,3S,4R,5R)-5-(6-amino-9H-purin-9-yl)-3,4-dihydroxytetrahydrofuran-2-yl)methoxy)(hydroxy)phosphoryloxy)(hydroxy)phosphoryloxy)methyl)-2-((S)-5-(benzyloxycarbonylamino)-6-oxo-6-(phenylamino)hexylamino)-6-hydroxytetrahydrofuro[2,3-d][1,3]oxathiol-2-ylamino)propanoic acid level measured after 5 hrs by liquid chromatography-mass spectrometry method.

The target is the same in experiment [2]. Put plainly: Substrate activity at SIRT5 (unknown origin) assessed as compound-NAD covalent intermediate formation by measuring parent compound consumption measured after 18 hrs by liquid chromatography-mass spectrometry method.
Experiment [3] shares this target. Put plainly: Substrate activity at SIRT5 (unknown origin) assessed as compound-NAD covalent intermediate formation by measuring 2-((2R,3R,4R,5R)-5-((((((2R,3S,4R,5R)-5-(6-amino-9H-purin-9-yl)-3,4-dihydroxytetrahydrofuran-2-yl)methoxy)(hydroxy)phosphoryloxy)(hydroxy)phosphoryloxy)methyl)-4-hydroxy-2-mercaptotetrahydrofuran-3-yl)-1-((S)-5-(benzyloxycarbonylamino)-6-oxo-6-(phenylamino)hexyl)-3-(2-carboxyethyl)isouronium level measured after 15 mins by liquid chromatography-mass spectrometry method.

Experiment [4] has the same target. Put plainly: Substrate activity at SIRT5 (unknown origin) assessed as compound-NAD covalent intermediate formation by measuring 2-((2R,3R,4S,5R)-5-((((((2R,3S,4R,5R)-5-(6-amino-9H-purin-9-yl)-3,4-dihydroxytetrahydrofuran-2-yl)methoxy)(hydroxy)phosphoryloxy)(hydroxy)phosphoryloxy)methyl)-3,4-dihydroxytetrahydrofuran-2-yl)-1-((S)-5-(benzyloxycarbonylamino)-6-oxo-6-(phenylamino)hexyl)-3-(2-carboxyethyl)isothiouronium level measured after 15 mins by liquid chromatography-mass spectrometry method.

The target is the same in experiment [5]. Put plainly: Substrate activity at SIRT5 (unknown origin) assessed as compound-NAD covalent intermediate formation by measuring 2-((2R,3R,4R,5R)-5-((((((2R,3S,4R,5R)-5-(6-amino-9H-purin-9-yl)-3,4-dihydroxytetrahydrofuran-2-yl)methoxy)(hydroxy)phosphoryloxy)(hydroxy)phosphoryloxy)methyl)-4-hydroxy-2-mercaptotetrahydrofuran-3-yl)-1-((S)-5-(benzyloxycarbonylamino)-6-oxo-6-(phenylamino)hexyl)-3-(2-carboxyethyl)isouronium level measured after 7 hrs by liquid chromatography-mass spectrometry method.

Experiment [6] shares this target. Description: Substrate activity at SIRT5 (unknown origin) assessed as compound-NAD covalent intermediate formation by measuring 3-((3aR,5R,6R,6aR)-5-((((((2R,3S,4R,5R)-5-(6-amino-9H-purin-9-yl)-3,4-dihydroxytetrahydrofuran-2-yl)methoxy)(hydroxy)phosphoryloxy)(hydroxy)phosphoryloxy)methyl)-2-((S)-5-(benzyloxycarbonylamino)-6-oxo-6-(phenylamino)hexylamino)-6-hydroxytetrahydrofuro[2,3-d][1,3]oxathiol-2-ylamino)propanoic acid level measured after 15 mins by liquid chromatography-mass spectrometry method.

Experiment [7] addresses T1, NAD-dependent protein deacetylase sirtuin-2 (Homo sapiens) (UniProt Q8IXJ6).
T1 sequence (whole entry): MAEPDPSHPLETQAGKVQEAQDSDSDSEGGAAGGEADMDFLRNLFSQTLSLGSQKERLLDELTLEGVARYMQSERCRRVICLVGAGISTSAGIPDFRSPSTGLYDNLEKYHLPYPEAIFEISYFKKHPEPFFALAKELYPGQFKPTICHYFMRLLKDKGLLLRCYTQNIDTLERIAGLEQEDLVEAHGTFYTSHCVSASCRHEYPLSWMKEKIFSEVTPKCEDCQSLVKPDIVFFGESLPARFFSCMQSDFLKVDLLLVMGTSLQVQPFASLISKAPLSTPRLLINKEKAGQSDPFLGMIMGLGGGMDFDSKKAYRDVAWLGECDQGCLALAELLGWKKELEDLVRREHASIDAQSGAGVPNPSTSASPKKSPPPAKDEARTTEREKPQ
Put plainly: Inhibition of SIRT2 (unknown origin) assessed as reduction in enzyme-catalyzed desuccinylation reaction at 256 uM.

Experiment [8] addresses T2, NAD-dependent protein deacetylase sirtuin-1 (Homo sapiens) (UniProt Q96EB6).
T2 sequence (whole entry): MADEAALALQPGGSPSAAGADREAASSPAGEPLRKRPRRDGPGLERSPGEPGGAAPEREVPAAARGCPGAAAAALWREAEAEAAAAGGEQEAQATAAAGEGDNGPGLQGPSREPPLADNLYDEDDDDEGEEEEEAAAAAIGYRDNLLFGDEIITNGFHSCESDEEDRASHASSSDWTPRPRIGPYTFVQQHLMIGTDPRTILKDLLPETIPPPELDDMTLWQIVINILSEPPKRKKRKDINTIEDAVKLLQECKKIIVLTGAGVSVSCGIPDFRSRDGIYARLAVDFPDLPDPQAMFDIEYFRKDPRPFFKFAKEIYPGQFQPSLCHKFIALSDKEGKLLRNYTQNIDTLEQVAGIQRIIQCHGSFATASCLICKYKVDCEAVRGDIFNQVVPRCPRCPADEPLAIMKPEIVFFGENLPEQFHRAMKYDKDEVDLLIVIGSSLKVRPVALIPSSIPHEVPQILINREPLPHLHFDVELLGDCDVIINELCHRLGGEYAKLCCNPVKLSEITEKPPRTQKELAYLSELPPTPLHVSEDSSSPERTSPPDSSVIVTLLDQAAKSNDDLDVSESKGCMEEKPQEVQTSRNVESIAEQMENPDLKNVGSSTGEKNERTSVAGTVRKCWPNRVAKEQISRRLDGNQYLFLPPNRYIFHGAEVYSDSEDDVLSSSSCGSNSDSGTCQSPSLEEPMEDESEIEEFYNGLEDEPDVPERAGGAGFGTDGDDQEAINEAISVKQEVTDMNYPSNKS
Description: Inhibition of SIRT1 (unknown origin) assessed as reduction in enzyme-catalyzed desuccinylation reaction at 256 uM.

Experiment [9] addresses NAD-dependent protein deacylase sirtuin-5, mitochondrial (Homo sapiens) (UniProt Q9NXA8). Put plainly: Substrate activity at SIRT5 (unknown origin) assessed as compound-NAD covalent intermediate formation by measuring 2-((2R,3R,4S,5R)-5-((((((2R,3S,4R,5R)-5-(6-amino-9H-purin-9-yl)-3,4-dihydroxytetrahydrofuran-2-yl)methoxy)(hydroxy)phosphoryloxy)(hydroxy)phosphoryloxy)methyl)-3,4-dihydroxytetrahydrofuran-2-yl)-1-((S)-5-(benzyloxycarbonylamino)-6-oxo-6-(phenylamino)hexyl)-3-(2-carboxyethyl)isothiouronium level measured after 5 hrs by liquid chromatography-mass spectrometry method.

Experiment [10] has the same target. Put plainly: Substrate activity at SIRT5 (unknown origin) assessed as compound-NAD covalent intermediate formation by measuring (S)-3,11-dioxo-1-phenyl-5-(phenylcarbamoyl)-2-oxa-4,10,12-triazapentadecan-15-oic acid level measured after 18 hrs by liquid chromatography-mass spectrometry method.
Experiment [11] has the same target. Put plainly: Mechanism based inhibition of SIRT5 (unknown origin) incubated in presence of NAD for 15 mins by liquid chromatography-mass spectrometry method.
Experiment [12] relates to MCF7. Put plainly: Growth inhibition of human MCF7 cells at 25 uM incubated for 10 days by crystal violet staining based assay. Format: functional, cell-based.
Experiment [13] has as its target NAD-dependent protein deacylase sirtuin-5, mitochondrial (Homo sapiens) (UniProt Q9NXA8). Description: Inhibition of SIRT5 in human HeLa cells assessed as increase in protein succinylation level at 100 uM after 24 to 48 hrs by Western blot analysis. Format: cell-based. In general terms: Immunoblotting shows a protein as a band on a membrane.
The target in experiment [14] is T3, NAD-dependent protein deacetylase sirtuin-3, mitochondrial (Homo sapiens, UniProt Q9NTG7).
T3 sequence (Q9NTG7 whole entry): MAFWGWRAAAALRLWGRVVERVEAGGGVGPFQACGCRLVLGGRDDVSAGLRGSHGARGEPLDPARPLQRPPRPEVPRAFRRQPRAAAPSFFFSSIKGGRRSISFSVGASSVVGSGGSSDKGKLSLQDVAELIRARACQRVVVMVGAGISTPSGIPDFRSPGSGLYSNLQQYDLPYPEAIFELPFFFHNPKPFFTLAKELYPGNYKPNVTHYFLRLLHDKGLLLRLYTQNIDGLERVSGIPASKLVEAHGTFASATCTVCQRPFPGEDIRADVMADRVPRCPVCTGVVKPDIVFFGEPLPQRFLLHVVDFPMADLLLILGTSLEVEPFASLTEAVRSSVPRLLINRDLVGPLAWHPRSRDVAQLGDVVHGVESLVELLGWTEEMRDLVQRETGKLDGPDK
Put plainly: Inhibition of SIRT3 (unknown origin) assessed as reduction in enzyme-catalyzed desuccinylation reaction.

In experiment [15] the target is T4, NAD-dependent protein deacetylase sirtuin-2 (Homo sapiens, UniProt Q8IXJ6).
T4 sequence (Q8IXJ6 whole entry): T1 sequence (whole entry)
Description: Inhibition of SIRT2 (unknown origin) assessed as reduction in enzyme-catalyzed desuccinylation reaction.

Experiment [16] concerns the target T5, NAD-dependent protein deacetylase sirtuin-1 (Homo sapiens, UniProt Q96EB6).
T5 sequence (Q96EB6 whole entry): T2 sequence (whole entry)
Description: Inhibition of SIRT1 (unknown origin) assessed as reduction in enzyme-catalyzed desuccinylation reaction.

Experiment [17] has as its target NAD-dependent protein deacylase sirtuin-5, mitochondrial (Homo sapiens) (UniProt Q9NXA8). Put plainly: Inhibition of SIRT5 (unknown origin) assessed as reduction in enzyme-catalyzed desuccinylation reaction at 200 uM.
For another experiment, the system named is MDA-MB-468. Put plainly: Inhibition of foci formation in human MDA-MB-468 cells at 10 to 100 uM. Format: functional, cell-based.
Experiment [18] deals with MCF7. Put plainly: Inhibition of foci formation in human MCF7 cells at 10 to 100 uM. Type of experiment: functional, cell-based.
Experiment [19] concerns the target NAD-dependent protein deacylase sirtuin-6 (Homo sapiens, UniProt Q8N6T7). Put plainly: Inhibition of SIRT6 (unknown origin) assessed as reduction in enzyme-catalyzed desuccinylation reaction.
In the next experiment the test system is MDA-MB-231. Put plainly: Inhibition of foci formation in human MDA-MB-231 cells at 10 to 100 uM. Format: functional, cell-based.
The target of experiment [20] is NAD-dependent protein deacylase sirtuin-5, mitochondrial (Homo sapiens) (UniProt Q9NXA8). Description: Inhibition of SIRT5 in human MCF7 cells assessed as increase in protein succinylation level at 100 uM after 48 to 72 hrs by Western blot analysis. Type of experiment: cell-based.
NAD-dependent protein deacylase sirtuin-5, mitochondrial (Homo sapiens), sequence (Q9NXA8 37-310 limits assumed): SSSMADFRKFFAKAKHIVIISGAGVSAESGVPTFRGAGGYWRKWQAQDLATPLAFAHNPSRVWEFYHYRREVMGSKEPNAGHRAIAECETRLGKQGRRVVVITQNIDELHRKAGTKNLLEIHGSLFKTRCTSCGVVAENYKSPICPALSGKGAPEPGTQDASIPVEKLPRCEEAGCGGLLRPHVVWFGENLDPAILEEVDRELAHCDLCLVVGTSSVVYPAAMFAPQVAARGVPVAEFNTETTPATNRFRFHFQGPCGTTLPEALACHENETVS

NAD-dependent protein deacylase sirtuin-6, sequence (Q8N6T7 whole entry): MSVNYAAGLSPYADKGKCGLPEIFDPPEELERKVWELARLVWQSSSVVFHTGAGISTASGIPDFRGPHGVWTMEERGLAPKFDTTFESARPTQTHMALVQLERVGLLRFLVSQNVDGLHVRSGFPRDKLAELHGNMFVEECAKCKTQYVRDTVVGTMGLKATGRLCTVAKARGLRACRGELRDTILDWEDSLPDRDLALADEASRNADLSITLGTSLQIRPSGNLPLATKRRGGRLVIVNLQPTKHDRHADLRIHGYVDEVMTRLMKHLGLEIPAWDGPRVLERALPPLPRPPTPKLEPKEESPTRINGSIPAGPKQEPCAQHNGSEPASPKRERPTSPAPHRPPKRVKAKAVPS

On to `O=C(O)CC(=S)NCCCC[C@H](NC(=O)OCc1ccccc1)C(=O)Nc1ccccc1`, for which the outcome in [1], in [2], in experiment [3], in experiment [4], in experiment [5] and in experiment [6] was Active. Also, the outcome in [9] and in [10] was Active. Also, the inhibition result in experiment [7] and in experiment [8] was “inactive” in each case. The inhibition entry in experiment [11] is “Active”.
As to `O=C(O)CCC(=S)NCCCC[C@H](NC(=O)OCc1ccccc1)C(=O)Nc1ccccc1`, the inhibition entry in experiment [7] and in [8] was “inactive” each time.
For `CCOC(=O)CCNC(=S)NCCCC[C@H](NC(=O)OCc1ccccc1)C(=O)NC1CCSc2ccccc21` (some centres not stated), the “growth inhibition (GI)” value in the experiment on MCF7 [12] is “Active”. Moreover, in [13], the inhibition entry is “Active”.
For `O=C(O)CCNC(=S)NCCCC[C@H](NC(=O)OCc1ccccc1)C(=O)Nc1cccc(O)c1`, the IC50 entry in experiment [14], in [15] and in experiment [16] was “Not Active” in each case.
For `CCOC(=O)CCNC(=S)NCCCC[C@H](NC(=O)OCc1ccccc1)C(=O)Nc1cccc(O)c1`, the IC50 result in experiment [14] and in experiment [19] was “Not Active” in each case. Further, the inhibition is 20% in [17], “Dose-dependent effect” in the experiment with MDA-MB-468, “Dose-dependent effect” in the experiment with MCF7 [18] and “Dose-dependent effect” with MDA-MB-231. Moreover, in [20], the inhibition result was “Active”.
On to `O=C(O)CCCC(=S)NCCCC[C@H](NC(=O)OCc1ccccc1)C(=O)Nc1ccccc1`, for which the result in [2] was inactive. Moreover, the inhibition entry in [7] and in experiment [8] was “inactive” in each case.
Regarding `O=C(O)CCNC(=S)NCCCC[C@H](NC(=O)OCc1ccccc1)C(=O)NC1CCSc2ccccc21` (some centres not stated), the IC50 result in experiment [14], in experiment [15] and in [16] was “Not Active” in each case. The “growth inhibition (GI)” value in the experiment on MCF7 [12] was “inactive”.

By inhibition is commonly meant the change of the read-out against control, counted positive when it falls.
